Measured values published in PMC10870435, “A novel complement C3 inhibitor CP40-KK protects against experimental pulmonary arterial hypertension via an inflammasome NLRP3 associated pathway” (Journal of Translational Medicine, 2024).
Bridge positions count the residues as written; N and C are the ends. Square brackets hold non-standard residues; d marks the D form. Peptide text beside a SMILES is read from it. Trp(1-Me) = Cn1cc(C[C@H](N)C(=O)O)c2ccccc21; NMeI = CC[C@H](C)[C@H](NC)C(=O)O; Sar = CNCC(=O)O

Assays:
[1] = system: rat complement C3 function; assay: CH50 test (Mayer method) in vitro, peptide added to rat plasma; assay type: biochemical; conditions: 0, 2.5, 5.0, 10, 20, 40 µM added to mixed wild-type SD rat plasma; sensitized sheep erythrocytes
Procedure: The total functional complement was determined with a CH50 assay based on the modified method of Mayer. The 50% haemolytic standard tube was made by adding 0.3 ml 2% sheep erythrocytes (Chundubio, Wuhan, China) to 1.2 ml distilled water and then diluting with equivoluminal veronal buffer saline (Leagene, Beijing, China). The sheep erythrocytes were sensitized by adding a designated volume of a predetermined concentration of rabbit haemolytic serum (Solarbio, Beijing, China) in veronal buffer saline. The plasma of rats was first prediluted in veronal buffer saline at 1/5, 1/10, and 1/20. […] The OD values of supernatant liquid in the ten tubes were measured at 541 nm and compared with that of the 50% haemolytic standard tube to get the most similar value. The total haemolytic complement (CH50) = dilution ratio / the quantity of plasma needed to induce 50% lysis of sheep erythrocytes.
Plasma samples for biological assays from rats were centrifuged and stored at -80°C until used, and the total functional complement was determined with a CH50 assay based on the modified method of Mayer. This assay involves determining the quantity of plasma needed to induce 50% lysis of sheep erythrocytes sensitized with antibody anti-sheep erythrocytes. […] The total hemolytic complement (CH50) = dilution ratio / the quantity of plasma needed to induce 50% lysis of sheep erythrocytes^5-7.

[2] = system: rat complement C3 function; assay: CH50 test ex vivo, plasma of PAH experiment groups; assay type: in vivo; conditions: 2 mg/kg s.c. day 15 to day 28
Procedure: In the current study, two animal experiments were conducted successively. 30 rats were randomly divided into two groups (control group and MCT group, n = 15 per group) in the first experiment. MCT group rats received a single intraperitoneally injection of MCT (40 mg/kg) on day 1 to induce PAH while control group rats received an equivoluminal saline injection intraperitoneally. For the second animal experiment, the rats were assigned into four groups (control group, MCT group, CP40-KK group, and MCT + CP40-KK group, n = 15 per group). […]
The total functional complement was determined with a CH50 assay based on the modified method of Mayer. […] The OD values of supernatant liquid in the ten tubes were measured at 541 nm and compared with that of the 50% haemolytic standard tube to get the most similar value. The total haemolytic complement (CH50) = dilution ratio / the quantity of plasma needed to induce 50% lysis of sheep erythrocytes.
Plasma samples for biological assays from rats were centrifuged and stored at -80°C until used, and the total functional complement was determined with a CH50 assay based on the modified method of Mayer. This assay involves determining the quantity of plasma needed to induce 50% lysis of sheep erythrocytes sensitized with antibody anti-sheep erythrocytes. […]

[3] = system: MCT-induced rat PAH model; assay: MCT-induced rat PAH model: hemodynamics, RV hypertrophy, vessel morphology; assay type: in vivo
Procedure: In the current study, two animal experiments were conducted successively. 30 rats were randomly divided into two groups (control group and MCT group, n = 15 per group) in the first experiment. MCT group rats received a single intraperitoneally injection of MCT (40 mg/kg) on day 1 to induce PAH while control group rats received an equivoluminal saline injection intraperitoneally. For the second animal experiment, the rats were assigned into four groups (control group, MCT group, CP40-KK group, and MCT + CP40-KK group, n = 15 per group). The control group was given the same volume of saline subcutaneously while the CP40-KK group rats only received CP40-KK (2 mg/kg) by subcutaneous injection from day 15 to day 28 continuously. The rats in the MCT group and MCT + CP40-KK group were received a single intraperitoneally injection of MCT (40 mg/kg) on day 1 and subcutaneously injected with either an equal volume of saline or CP40-KK (2 mg/kg) at day 15 to day 28 continuously. The dose selection of MCT and CP40-KK in our study was established based on previous studies.
Four weeks after the MCT injection, the experimental rats were weighed and anesthetized by intraperitoneal injecting pentobarbital sodium (40 mg/kg). After being anesthetized, rats were fixed in the supine position. A 3F polyethylene catheter filling with heparin was introduced into the right ventricle (RV) through the right jugular vein and the right atrium. Right ventricle systolic pressure (RVSP) was assessed by a pressure transducer and PowerLab system (AD Instruments, Australia). Pressure recordings were measured over a 2 min period and analyzed with Powerlab Pro Software (AD Instruments, Australia). After the hemodynamic study, the rats were euthanized by an overdose of anesthesia, and their lungs and hearts were dissected for further evaluation. The dry weights of the RV and left ventricle (LV) + septum were measured to calculate the RV/(LV + S) ratio and the RV / body weight (RV/BW). The left lung was fixed in 4% paraformaldehyde, and the right lung was snap-frozen in liquid nitrogen and stored at − 80 °C for further analysis.
Fixed lung samples were further fixed in 4% buffered paraformaldehyde for 24 h, embedded in paraffin, and processed for sectioning at 5 μm thick. Hematoxylin and eosin (H&E) staining were performed on paraffin-fixed lung tissue slides. The percent medial wall thickness (WT%) and percent medial wall area (WA%) were used to assess the extent of pulmonary vascular remodeling. WT% = (external diameter − internal diameter)/(external diameter) × 100%; WA% = (external area − internal area)/external area × 100%. All data were obtained and analyzed in a blinded manner.

[4] = Plasma lipids and lung oxidative stress markers in PAH rats; assay type: in vivo, rat
Procedure: Blood samples were obtained from rats, and plasma lipid levels were measured with a total cholesterol assay kit and triglyceride assay kit (Nanjing Jiancheng Bioengineering Institute, Nanjing City, China). 2.5μL plasma or 2.5μL calibrator was added into 250μL working solution, and then incubated at 37 ℃ for 10 minutes. OD values were measured at 500nm using a microplate reader (Bio-tek, Vermont, USA).
Figure S2. The effect of CP40-KK on oxidative stress in the lungs of the PAH rats. Representative Western blots (A) and quantification (B) of the NOX1, Gp91phox, NOX4 and SOD2 in lung homogenates of rat (B; n=6 per group).

C3b = conditions: cited from earlier work
complement C3 = conditions: cited from earlier work
[5] = MCT 40 mg/kg i.p. day 1, 2 mg/kg/day s.c. day 15-28, vs MCT group, n = 6 per group

## CC[C@H](C)[C@H](NC(=O)[C@H](N)Cc1ccc(O)cc1)C(=O)N[C@H]1CSSC[C@@H](C(=O)N(C)[C@H](C(=O)N[C@@H](CCCCN)C(=O)N[C@@H](CCCCN)C(N)=O)[C@@H](C)CC)NC(=O)[C@H](CCCNC(=N)N)NC(=O)[C@H](Cc2c[nH]cn2)NC(=O)CN(C)C(=O)[C@H](Cc2c[nH]c3ccccc23)NC(=O)[C@H](CC(=O)O)NC(=O)[C@H](CCC(N)=O)NC(=O)[C@H](Cc2cn(C)c3ccccc23)NC(=O)[C@H](C(C)C)NC1=O [CP40-KK] (H-[dY]ICV[Trp(1-Me)]QDW[Sar]HRC[NMeI]KK-NH2; disulfide 3-12 (inferred))
[1]
  CH50 value (rat C3 function) in vitro: blocked rat C3 function in a dosage-dependent manner
[2]
  CH50 value ex vivo, MCT + CP40-KK vs MCT group: could reverse it
[3]; [5]
  RV / (LV + S) ratio: significantly ameliorate
  RV / BW ratio: significantly ameliorate
  RVSP: significantly ameliorate
  pulmonary wall thickness index WA%: significantly ameliorate
  pulmonary wall thickness index WT%: significantly ameliorate
[3]; rats without MCT, 2 mg/kg s.c. day 15-28
  PAH-related indices, CP40-KK only group vs saline only group: no significant effect
[4]; lung homogenates, western blot, Figure S2, n=6 per group
  effect on oxidative stress (NOX1, Gp91phox, NOX4, SOD2): no effect
[4]; rat plasma, PAH model groups, Figure S1
  effect on lipid metabolism (triglyceride, cholesterol): no effect
C3b
  binding affinity for C3b relative to CP40: increase the binding affinity for C3b
Complement C3
  inhibitory potency relative to CP40: retaining its inhibitory potency
